Activity calls are given as the source filed them. The rule behind the calls is not given here.
Key:
SARS-CoV-2 [1] = assay: (§1) Antiviral activity against SARS CoV-2 Wuhan infected in African green monkey Vero E6 cells assessed as inhibition of viral replication pretreated for 15 mins followed by compound removal and induction of viral infection for 1 hr and subsequent removal of inoculum and further addition of media containing compound measured after 48 hrs by RT-qPCR analysis; format: functional, organism-based; conditions: Severe acute respiratory syndrome coronavirus 2, time 48.25 hrs
SARS-CoV-2 [2] = assay: as §1, with “virus inactivation at 10 uM” for “inhibition of viral replication”, “analysis relative to control” for “analysis”; format: functional
SARS-CoV-2 [3] = assay: as §1, with “24” for “48”, “cell-based ELISA” for “RT-qPCR analysis”; format: functional, organism-based; conditions: for IC50: Severe acute respiratory syndrome coronavirus 2, Wuhan, Vero C1008; for inhibition: Severe acute respiratory syndrome coronavirus 2, time 24.25 hrs
Vero C1008 = assay: Cytotoxicity against African green monkey Vero E6 cells assessed as cell viability at 5 uM incubated for 48 hrs by MTT assay; format: toxicity, cell-based; conditions: chlorocebus sabaeus, vero c1008, 48 h, 5 µM
[4] = molecular target: Voltage-gated inwardly rectifying potassium channel KCNH2 (Homo sapiens, UniProt Q12809); assay: Inhibition of hERG extracted from membrane (unknown origin) incubated for 4 hrs by fluorescence polarization assay; format: toxicity, cell membranes
SARS-CoV-2 [5] = assay: as §1, with “virus inactivation at 5 uM” for “inhibition of viral replication”, “analysis relative to control” for “analysis”; format: functional, Severe acute respiratory syndrome coronavirus 2; conditions: time 48.25 hrs
SARS-CoV-2 [6] = assay: as §1, with “virus inactivation at 1 uM” for “inhibition of viral replication”, “analysis relative to control” for “analysis”; format: functional, Severe acute respiratory syndrome coronavirus 2; conditions: time 48.25 hrs
[7] = Severe acute respiratory syndrome coronavirus 2, time 48.25 hrs

Chain of Voltage-gated inwardly rectifying potassium channel KCNH2 (Q12809 whole entry): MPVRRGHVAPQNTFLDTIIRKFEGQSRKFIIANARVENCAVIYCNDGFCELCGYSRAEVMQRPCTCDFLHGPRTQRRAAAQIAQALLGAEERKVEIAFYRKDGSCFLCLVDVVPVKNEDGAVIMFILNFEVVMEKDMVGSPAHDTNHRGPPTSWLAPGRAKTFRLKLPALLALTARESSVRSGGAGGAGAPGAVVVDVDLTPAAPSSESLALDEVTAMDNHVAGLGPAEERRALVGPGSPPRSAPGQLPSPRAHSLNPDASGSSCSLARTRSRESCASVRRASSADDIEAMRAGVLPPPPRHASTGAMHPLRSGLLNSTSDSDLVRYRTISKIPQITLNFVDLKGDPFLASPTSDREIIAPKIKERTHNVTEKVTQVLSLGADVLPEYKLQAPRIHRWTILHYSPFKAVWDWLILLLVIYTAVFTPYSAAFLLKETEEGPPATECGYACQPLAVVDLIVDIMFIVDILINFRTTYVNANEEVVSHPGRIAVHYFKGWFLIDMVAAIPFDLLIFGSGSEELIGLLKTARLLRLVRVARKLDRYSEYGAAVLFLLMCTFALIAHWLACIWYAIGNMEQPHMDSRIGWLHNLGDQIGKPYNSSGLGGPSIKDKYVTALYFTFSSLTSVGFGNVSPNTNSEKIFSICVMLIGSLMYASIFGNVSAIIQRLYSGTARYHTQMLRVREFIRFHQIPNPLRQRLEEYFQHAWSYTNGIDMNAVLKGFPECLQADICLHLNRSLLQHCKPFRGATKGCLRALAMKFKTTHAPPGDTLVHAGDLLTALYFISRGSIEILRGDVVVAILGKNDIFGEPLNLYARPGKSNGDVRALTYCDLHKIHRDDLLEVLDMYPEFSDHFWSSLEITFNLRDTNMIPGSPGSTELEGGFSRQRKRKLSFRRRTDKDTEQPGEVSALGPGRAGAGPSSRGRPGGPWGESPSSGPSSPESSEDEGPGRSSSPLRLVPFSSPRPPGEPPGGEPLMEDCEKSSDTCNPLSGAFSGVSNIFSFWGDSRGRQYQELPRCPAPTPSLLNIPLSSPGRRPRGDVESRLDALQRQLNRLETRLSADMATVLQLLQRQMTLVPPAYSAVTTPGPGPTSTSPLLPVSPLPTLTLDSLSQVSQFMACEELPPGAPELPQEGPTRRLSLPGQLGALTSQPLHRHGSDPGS

| Compound | inhibition (SARS-CoV-2 [1]) | Activity (SARS-CoV-2 [2]; [7]) | IC50 (SARS-CoV-2 [3]) | Activity (Vero C1008) | other results |
| --- | --- | --- | --- | --- | --- |
| CCOC(=O)c1c(CSc2ccccc2C(F)(F)F)n(C)c2cc(Br)c(O)c(CN(C)C)c12 | Not active; No Significant Effect | Not active; No Significant Effect Observed |  |  |  |
| Cn1c(CSc2ccccc2)c(C(=O)N2CCC(N3CCOCC3)CC2)c2cc(O)c(Br)cc21 |  |  | 3.1 µM | Non-toxic | IC50 [4]: 13 µM |
| CCOC(=O)c1c(CSc2c(C)cc(C)cc2C)n(C)c2cc(Br)c(O)c(CN(C)C)c12 | Not active; No Significant Effect | Not determined; No Significant Effect Observed |  | Non-toxic |  |
| CCOC(=O)c1c(CSc2ccc(F)cc2)n(Cc2ccc(C)cc2)c2cc(Br)c(O)cc12 | Not active; No Significant Effect | Not active; No Significant Effect Observed |  | Non-toxic |  |
| CCOC(=O)c1c(CSc2ccccc2)n(Cc2ccc(F)cc2)c2cc(Br)c(O)cc12 |  |  | 1.1 µM | Non-toxic | Activity (SARS-CoV-2 [5]): >99%; IC50 [4]: > 30 µM |
| CC(C)N1CCC(NC(=O)c2c(CSc3ccccc3)n(C)c3cc(Br)c(O)cc23)CC1 |  |  | 6.6 µM | Non-toxic | IC50 [4]: 7.09 µM |
| CCOC(=O)c1c(CSc2c(C)cc(C)cc2C)n(Cc2cccc3ccccc23)c2cc(Br)c(O)cc12 |  | Not active; No Significant Effect Observed |  | Non-toxic | inhibition (SARS-CoV-2 [3]): inactive |
| CCOC(=O)c1c(CSc2ccc(F)cc2C)n(Cc2cccc3ccccc23)c2cc(Br)c(O)cc12 |  | Not active; No Significant Effect Observed |  | Non-toxic | inhibition (SARS-CoV-2 [3]): inactive |
| CCOC(=O)c1c(CSc2ccc(F)cc2)n(C)c2cc(Br)c(O)cc12 |  |  |  | Non-toxic | inhibition (SARS-CoV-2 [3]): inactive; Activity (SARS-CoV-2 [6]): <90%; Activity (SARS-CoV-2 [2]; time 48.25 hrs): 99.9% |
| CCOC(=O)c1c(CSc2ccccc2)[nH]c2cc(Br)c(O)cc12 | Not active; No Significant Effect | Not active; No Significant Effect Observed |  | Non-toxic |  |
| CCOC(=O)c1c(CSc2c(C)cc(C)cc2C)n(Cc2ccc(F)cc2)c2cc(Br)c(O)cc12 |  |  | 1.3 µM | Non-toxic | Activity (SARS-CoV-2 [5]): >95% |
| CCOC(=O)c1c(CSc2ccccc2OC)n(C)c2cc(Br)c(O)c(CN(C)C)c12 | Not active; No Significant Effect | Not active; No Significant Effect Observed |  |  |  |
| CCOC(=O)c1c(CSc2ccccc2OC)n(C)c2cc(Br)c(O)cc12 | Not active; No Significant Effect | Not active; No Significant Effect Observed |  |  |  |
| Cn1c(CSc2ccc(F)cc2)c(C(=O)NC(C)(C)C)c2cc(O)c(Br)cc21 |  |  |  |  | inhibition (SARS-CoV-2 [3]): inactive |
| CC(C)N1CCC(NC(=O)c2c(CSc3ccc(F)cc3)n(C)c3cc(Br)c(O)cc23)CC1 |  |  |  |  | inhibition (SARS-CoV-2 [3]): inactive |
| CC(C)N1CCN(C(=O)c2c(CSc3ccccc3)n(C)c3cc(Br)c(O)cc23)CC1 |  |  | 3.05 µM | Non-toxic | IC50 [4]: 1.19 µM |
| CCOC(=O)c1c(CSc2ccccc2)n(C)c2cc(Br)c(O)cc12 |  |  | 8.4 µM | Non-toxic | Activity (SARS-CoV-2 [6]): <90% |
| CC(C)N1CCN(C(=O)c2c(CSc3ccc(F)cc3)n(C)c3cc(Br)c(O)cc23)CC1 |  |  | 1.7 µM | Non-toxic |  |
| Cn1cc(NC(=O)c2c(CSc3ccccc3)n(C)c3cc(Br)c(O)cc23)cn1 |  |  | 1.5 µM | Non-toxic |  |
| Cn1c(CSc2ccc(F)cc2)c(C(=O)Nc2cc[nH]n2)c2cc(O)c(Br)cc21 |  |  | 2.3 µM | Non-toxic | IC50 [4]: > 30 µM |
| CCOC(=O)c1c(CSc2ccc(C)cc2C)n(Cc2ccc(F)cc2)c2cc(Br)c(O)cc12 | Not active; No Significant Effect | Not active; No Significant Effect Observed |  | Non-toxic |  |
| CCOC(=O)c1c(CSc2ccc(F)cc2)n(C)c2cc(Br)c(O)c(CN(C)C)c12 | Not active; No Significant Effect |  |  | Non-toxic |  |
